Data from patent US3935203A, “Derivatives of 3-oxo-2,3-dihydro-1,4-benzoxazine” (CERPHA, priority 1972, dated 1976).

How the values were obtained:
in vivo = details: mouse, po
[1] = tested on: pain induced by the intraperitoneal injection of acetic acid; experiment: Analgesic activity, Koster's test on mice (acetic acid writhing); assay type: in vivo, male mice; details: for inhibition in vivo at 200 mg/kg / inhibition in vivo at 400 mg/kg / ED50: Mus musculus, po; for inhibition in vivo at 200 mg/kg: 200 mg/kg per os; for inhibition in vivo at 400 mg/kg: 400 mg/kg per os
Experimental: (§1) The pain is induced by the intraperitoneal injection of 0.10 ml/10 g of a 3% acetic acid solution.
(§2) The painful crises thus obtained (writhing of the trunk, stretching of the hind legs) are counted for 20 minutes following the injection.
(§3) The product to be tested was administered 30 minutes before the pain had been induced in batches of 10 male mice distributed at random. The percentage of analgesic activity is represented by the percentage decrease in the number of reactions established in relation to the controls.

[2] = tested on: pain induced by heat contact stimulation; experiment: Analgesic activity, Eddy's test in mice (hot plate); assay type: in vivo; details: for inhibition in vivo at 200 mg/kg / inhibition in vivo at 400 mg/kg / ED50: Mus musculus, po, 0.5 h; for inhibition in vivo at 200 mg/kg: 200 mg/kg per os; for inhibition in vivo at 400 mg/kg: 400 mg/kg per os; for ED50 / ED50 Eddy's test: per os, 30 minutes after administration, heat stimulus; for ED50 Eddy's test: 30 min
Experimental: (§4) Pain is induced by heat contact stimulation (mice placed on a heating plate kept at 56.5°C) and the time taken to react to the stimulus (licking of the front paws) is measured.
(§5) Batches of 10 animals selected at random are examined 30 minutes after the oral administration of the product to be tested in a gummy suspension.
(§6) The percentage of analgesic activity is established by taking as 100% activity the average response time of the control animals increased by 10 seconds.

kaolin oedema = experiment: Anti-oedematous activity, kaolin oedema in rats (Wilhelmi and Domenjoz); assay type: in vivo, male rats; details: per os; for ED50: Rattus norvegicus, po, paw volume 5 hours after kaolin, read-out: Kaolin oedema test ED50 per os
Experimental: 3. […] ACTIVITY Kaolin oedema in rats in accordance with […] The product to be tested was orally administered to batches of 8 male rats distributed at random 30 minutes before the intraplantar injection of 0.15 ml. of a 10% kaolin suspension. The volume of the paw is measured by plethysmography 5 hours after injection of the irritant. For each rat, the percentage oedema is evaluated in relation to the initial volume. The percentage activity corresponds to the percentage decrease in oedema (average oedema of the treated animals in comparison with the average oedema of the control animals).

[3] = Table III
[4] = tested on: pain (heat stimulus and chemical stimulus); experiment: Antalgic power compared with amidopyrine (Eddy's and Koster's tests); assay type: in vivo, mice; details: per os, reference amidopyrine
Experimental: as §4, §5, §6, §1, §2, §3

[5] = per os, 30 minutes before acetic acid, chemical stimulus

For CCC1Oc2ccc(Cl)cc2N(CC(COC(C)=O)OC(C)=O)C1=O (stereo not drawn) [Example 15, 2-ethyl-3-oxo-4-(2,3-diacetoxypropyl)-6-chloro-2,3-dihydro-1,4-benzoxazine], the LD50 (in vivo) was > 1500 mg/kg, the inhibition in vivo at 200 mg/kg [1] was 20% and the inhibition in vivo at 200 mg/kg [2] was 14%. For the same molecule, the ED50 (kaolin oedema) was 400 mg/kg and the “DL50 per os in mice” value [3] was > 1500 mg/kg.

For Cc1ccc2c(c1)N(CC(O)CO)C(=O)C(C)O2 (stereo not drawn) [Example 5, 2-methyl-3-oxo-4-(2,3-dihydroxypropyl)-6-methyl-2,3-dihydro-1,4-benzoxaine], the LD50 (in vivo) was > 1500 mg/kg, the inhibition in vivo at 400 mg/kg [1] was 66% and the inhibition in vivo at 400 mg/kg [2] was 60%.

O=C1COc2ccc(Cl)cc2N1CC(O)CO (stereo not drawn) [Example 3, 3-oxo-4-(2,3-dihydroxypropyl)-6-chloro-2,3-dihydro-1,4-benzoxazine] showed an LD50 (in vivo) of 1700 mg/kg, an ED50 [1, 5] of 100 mg/kg and an ED50 [2] of 200 mg/kg. The ED50 (kaolin oedema) was 200 mg/kg and the “anti-oedematous activity compared with phenylbutazone” value (kaolin oedema; reference phenylbutazone) was “comparable with that of phenylbutazone”.

In the case of COc1ccc2c(c1)N(CC(O)CO)C(=O)C(C)O2 (stereo not drawn) [Example 11, 2-methyl-3-oxo-4-(2,3-dihydroxypropyl)-6-methoxy-2,3-dihydro-1,4-benzoxazine], the LD50 (in vivo) is reported as > 1000 mg/kg, the inhibition in vivo at 200 mg/kg [1] is reported as 10% and the inhibition in vivo at 200 mg/kg [2] is reported as 16%. The ED50 (kaolin oedema) was 200 mg/kg and the “DL50 per os in mice” value [3] was > 1000 mg/kg.

In the case of C=CCc1cc(OC)c2c(c1)N(CC(O)CO)C(=O)C(C)O2 (stereo not drawn) [Example 12, 2-methyl-3-oxo-4-(2,3-dihydroxypropyl)-6-allyl-8-methoxy-2,3-dihydro-1,4-benzoxazine], the LD50 (in vivo) is reported as > 1500 mg/kg, the ED50 [1, 5] is reported as 300 mg/kg and the ED50 [2] is reported as 300 mg/kg.

With CC1Oc2ccc([N+](=O)[O-])cc2N(CC(O)CO)C1=O (stereo not drawn) [Example 7, 2-methyl-3-oxo-4-(2,3-dihydroxypropyl)-6-nitro-2,3-dihydro-1,4-benzoxazine] the LD50 (in vivo) was > 1000 mg/kg, the ED50 [1, 5] was 300 mg/kg and the ED50 [2] was 300 mg/kg. For the same molecule, the ED50 (kaolin oedema) was 400 mg/kg and the “DL50 per os in mice” value [3] was > 1000 mg/kg.

In the case of CC1Oc2ccc(Cl)cc2N(CC(O)CO)C1=O (stereo not drawn) [Example 1, 2-methyl-3-oxo-4-(2,3-dihydroxypropyl)-6-chloro-2,3-dihydro-1,4-benzoxazine], the LD50 (in vivo) is reported as 850 mg/kg, the ED50 [1, 5] is reported as 60 mg/kg and the “ED50 Koster's test” value [1, 5] is reported as 57 mg/kg. For the same molecule, the ED50 [2] was 60 mg/kg, the “ED50 Eddy's test” value [2] was 63 mg/kg and the “antalgic power relative to amidopyrine” value [4] was “as much as five times the activity of this reference product”.

For CC1Oc2cc(Br)c(Cl)cc2N(CC(O)CO)C1=O (stereo not drawn) [Example 4, 2-methyl-3-oxo-4-(2,3-dihydroxypropyl)-6-chloro-7-bromo-2,3-dihydro-1,4-benzoxazine], the LD50 (in vivo) was > 1500 mg/kg, the inhibition in vivo at 400 mg/kg [1] was 68% and the inhibition in vivo at 400 mg/kg [2] was 42%.

In the case of Cc1c(N(C)C)c(=O)n(-c2ccccc2)n1C [Amidopyrine, amidopyrine, reference compound], the LD50 (in vivo) is reported as 1850 mg/kg, the ED50 [1, 5] is reported as 120 mg/kg and the ED50 [2] is reported as 300 mg/kg.

Molecule CCC1Oc2ccc(Cl)cc2N(CC(O)CO)C1=O (stereo not drawn) [Example 2, 2-ethyl-3-oxo-4-(2,3-dihydroxypropyl)-6-chloro-2,3-dihydro-1,4-benzoxazine] has an LD50 (in vivo) of 1660 mg/kg, an ED50 [1, 5] of 60 mg/kg and an ED50 [2] of 60 mg/kg. The “ED50 Eddy's test” value [2] was 61 mg/kg and the “antalgic power relative to amidopyrine” value [4] was “as much as five times the activity of this reference product”.

With CC(=O)OCC(CN1C(=O)COc2ccc(Cl)cc21)OC(C)=O (stereo not drawn) [Example 16, 3-oxo-4-(2,3-diacetoxypropyl)-6-chloro-2,3-dihydro-1,4-benzoxazine] the LD50 (in vivo) was > 1500 mg/kg, the inhibition in vivo at 400 mg/kg [1] was 51% and the inhibition in vivo at 400 mg/kg [2] was 28%. For the same molecule, the ED50 (kaolin oedema) was 400 mg/kg and the “DL50 per os in mice” value [3] was > 1500 mg/kg.

In the case of CC(=O)OCC(CN1C(=O)C(C)Oc2ccc(Cl)cc21)OC(C)=O (stereo not drawn) [Example 14, 2-methyl-3-oxo-4-(2,3-diacetoxypropyl)-6-chloro-2,3-dihydro-1,4-benzoxazine], the LD50 (in vivo) is reported as > 1500 mg/kg, the inhibition in vivo at 400 mg/kg [1] is reported as 35% and the inhibition in vivo at 400 mg/kg [2] is reported as 43%. The ED50 (kaolin oedema) was 400 mg/kg and the “DL50 per os in mice” value [3] was > 1500 mg/kg.

CCCCC1C(=O)N(c2ccccc2)N(c2ccccc2)C1=O [Phenylbutazone, phenylbutazone, reference compound] gave an ED50 (kaolin oedema) of 200 mg/kg.

For CCC1Oc2ccccc2N(CC(O)CO)C1=O (stereo not drawn) [Example 8, 2-ethyl-3-oxo-4-(2,3-dihydroxypropyl)-2,3-dihydro-1,4-benzoxazine], the LD50 (in vivo) was 1200 mg/kg, the inhibition in vivo at 200 mg/kg [1] was 21% and the inhibition in vivo at 200 mg/kg [2] was 5%.

For CCCC1Oc2ccc(Cl)cc2N(CC(O)CO)C1=O (stereo not drawn) [Example 9, 2-n-propyl-3-oxo-4-(2,3-dihydroxypropyl)-6-chloro-2,3-dihydro-1,4-benzoxazine], the LD50 (in vivo) was > 1500 mg/kg, the ED50 [1, 5] was 80 mg/kg and the ED50 [2] was 100 mg/kg.

For CCCc1cc(OC)c2c(c1)N(CC(O)CO)C(=O)C(C)O2 (stereo not drawn) [Example 6, 2-methyl-3-oxo-4-(2,3-dihydroxypropyl)-6-n-propyl-8-methoxy-2,3-dihydro-1,4-benzoxazine], the LD50 (in vivo) was > 1500 mg/kg, the inhibition in vivo at 400 mg/kg [1] was 46% and the inhibition in vivo at 400 mg/kg [2] was 52%.

In the case of CCCCC1Oc2ccc(Cl)cc2N(CC(O)CO)C1=O (stereo not drawn) [Example 13, 2-n-butyl-3-oxo-4-(2,3-dihydroxypropyl)-6-chloro-2,3-dihydro-1,4-benzoxazine], the LD50 (in vivo) is reported as 1500 mg/kg, the ED50 [1, 5] is reported as 100 mg/kg and the ED50 [2] is reported as 100 mg/kg.

For CCC1Oc2ccc(Br)cc2N(CC(O)CO)C1=O (stereo not drawn) [Example 10, 2-ethyl-3-oxo-4-(2,3-dihydroxypropyl)-6-bromo-2,3-dihydro-1,4-benzoxazine], the LD50 (in vivo) was > 1500 mg/kg, the ED50 [1, 5] was 300 mg/kg and the ED50 [2] was 200 mg/kg.
